From patent publication US12410155B2, “Salt form and crystal form of tetrahydrocyclohepta indazole compound” (Zhejiang Yangli Pharmaceutical Technology Co., Ltd., priority 2021, dated 2025)

Tests used:
[1] = target: T1, Estrogen receptor α (ERα) (Homo sapiens, UniProt P03372); assay: ERα binding assay (radioactive ligand binding)
T1 construct: host or cells: insect Sf9 cells
T1 sequence (P03372 1-595): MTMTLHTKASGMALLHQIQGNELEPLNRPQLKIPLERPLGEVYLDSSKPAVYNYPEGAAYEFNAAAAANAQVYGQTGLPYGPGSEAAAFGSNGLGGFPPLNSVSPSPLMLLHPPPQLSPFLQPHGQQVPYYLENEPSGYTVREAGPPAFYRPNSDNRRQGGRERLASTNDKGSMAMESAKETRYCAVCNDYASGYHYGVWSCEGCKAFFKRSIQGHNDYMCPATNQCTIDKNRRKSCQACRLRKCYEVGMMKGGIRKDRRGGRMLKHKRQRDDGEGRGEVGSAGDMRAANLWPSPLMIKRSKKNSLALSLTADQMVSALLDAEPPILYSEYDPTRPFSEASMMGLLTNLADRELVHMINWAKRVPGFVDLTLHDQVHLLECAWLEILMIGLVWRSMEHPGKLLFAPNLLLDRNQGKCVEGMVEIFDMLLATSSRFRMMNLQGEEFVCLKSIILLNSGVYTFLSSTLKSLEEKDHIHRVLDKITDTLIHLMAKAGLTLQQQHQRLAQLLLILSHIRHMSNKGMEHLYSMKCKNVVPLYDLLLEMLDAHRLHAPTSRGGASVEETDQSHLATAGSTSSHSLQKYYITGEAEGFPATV
Method: (1) ERα Binding Assay: Assessment of the Activity of the Compound of Formula (I) Via Radioactive Ligand Binding Assay
The method employed in this study was adopted from scientific literature (Obourn, J. D. et al., Biochemistry, 1993, 32, 6229-6236).
The IC50 values were obtained using MathIQ™ software (ID Business Solutions Ltd., UK) employing a nonlinear, least-squares regression method. The presented inhibition constant (Ki) was calculated using the Cheng and Prusoff equation (Cheng, Y., Prusoff, W. H., Biochem. Pharmacol. 22:3099-3108, 1973) based on the experimentally determined IC50 of the test compound, the concentration of the radioactive ligand used in the assay, and the historical value of the ligand's KD (determined experimentally by Eurofins Panlabs, Inc.). As shown, the Hill coefficient (nH), which defines the slope of the competitive binding curve, was calculated using MathIQ™.

CAMA-1 cells = assay: CAMA-1 cell proliferation inhibition assay (CTG); assay type: cell-based; settings: Homo sapiens, 1 nM estradiol
Method: (4) MCF-7, T-47D, and CAMA-1 Cell Proliferation Inhibition Assay
CAMA-1: EMEM (without phenol red) containing 10% charcoal-stripped serum (500 mL culture medium containing 440 mL EMEM, 50 mL charcoal-stripped serum, 5 mL NEAA, 5 mL 100 mM sodium pyruvate).
The inhibitory effect of the test compound of formula (I) on the proliferation of MCF-7, CAMA-1, and T-47D cells was analyzed. For MCF-7 cells, ten concentration gradients ranging from 100 nM to 0.0003815 nM were tested, with three replicates for each concentration. For CAMA-1 cells, nine concentration gradients ranging from 100 nM to 0.001526 nM were tested, also with three replicates for each concentration. For T-47D cells, nine concentration gradients ranging from 2 μM to 0.00512 nM were tested, with three replicates for each concentration. Each experiment was conducted twice independently.
The CAMA-1 cells were treated with starvation medium for three days, followed by trypsin digestion, centrifugation, resuspension, and counting. Cell suspensions were prepared using the corresponding culture medium, and 80 μL of the suspension was added to each well of a 96-well plate. The plate was then incubated at 37° C. in a cell incubator with 5% CO2. The test compound of formula (I) was dissolved in DMSO to an initial concentration of 20 μM and subjected to a 4-fold serial dilution to achieve nine different concentrations. After overnight incubation, the diluted compound was further diluted with the corresponding cell culture medium. The resulting mixture was transferred to the respective wells of the cell plate, starting with a final concentration of 100 nM, followed by a 4-fold serial dilution to achieve nine concentrations. The positive control wells contained 2 μM fulvestrant, and 1 nM estradiol was added to the entire plate. […]
After incubation for the specified time, the cell culture plate was removed, and the CTG reagent was added. […] The readings were taken using the Envision multi-label analyzer. […]

FCCCN1CC[C@H](Nc2cnc(C3=C(CC(F)(F)F)CCCc4c3ccc3[nH]nc(F)c43)cn2)C1 [Compound of formula (I)] was tested, and the “nH (Hill coefficient)” value [1] was 1.22, the IC50 ([1]; 0.5 nM [3H] estradiol) was 0.36 nM and the Ki ([1]; Cheng and Prusoff equation) was 0.1 nM. It also gave an inhibition at 12.8 pM ([1]; concentration 12.8 pM, read-out: Inhibition rate (%)) of -4%, an inhibition at 64 pM ([1]; concentration 0.064 nM, read-out: Inhibition rate (%)) of 9% and an inhibition at 0.00032 µM ([1]; concentration 0.32 nM, read-out: Inhibition rate (%)) of 48%. For the same molecule, the inhibition at 0.0016 µM ([1]; concentration 1.6 nM, read-out: Inhibition rate (%)) was 84%, the inhibition at 0.008 µM ([1]; concentration 8 nM, read-out: Inhibition rate (%)) was 97% and the inhibition at 0.04 µM ([1]; concentration 0.04 μM, read-out: Inhibition rate (%)) was 98%. It also gave an inhibition at 0.2 µM ([1]; concentration 0.2 μM, read-out: Inhibition rate (%)) of 97%, an inhibition at 1 µM ([1]; concentration 1 μM, read-out: Inhibition rate (%)) of 97% and an IC50 (CAMA-1 cells; CAMA-1, First experiment) of 1.19 nM. For the same molecule, the IC50 (CAMA-1 cells; CAMA-1, Mean ± SD) was 1.29 ± 0.1 nM and the IC50 (CAMA-1 cells; CAMA-1, Second experiment) was 1.39 nM.
